Source: ChEMBL document CHEMBL5678803, “Selective blockade of TRPA1 channel attenuates pathological pain without altering noxious cold sensation or body temperature regulation” (Pain, 2011)
Calls of active or inactive are those of the source. No cut-off for these calls is given here.

What was measured:
[1] = target: T1, Transient receptor potential cation channel subfamily M member 8 (Homo sapiens, UniProt Q7Z2W7); assay: Activation of human TRPM8 expressed in HEK293F cells upto 100 micromol/L; assay type: cell-based; conditions: dose <= 100.0 µmol/L
[2] = Toxicity in Sprague-Dawley rat assessed as effect on heart rate; conditions: in vivo
[3] = Drug concentration in rat at 6.2 mg/kg, po measured after 60 mins; assay type: ADME, organism-based; conditions: in vivo, read-out: Drug uptake
[4] = target: Transient receptor potential cation channel subfamily A member 1 (Rattus norvegicus) (UniProt Q6RI86); assay: Antagonist activity at endogenous TRPA1 in rat DRG neurons assessed as blockade of AITC-induced Ca2+ signals at 1 micromol/L by […] Ca2+ imaging analysis; assay type: cell-based; conditions: DRG neuron, filed as antagonist, dose 1.0 µmol/L
[5] = target: T1, Transient receptor potential cation channel subfamily M member 8; assay: Antagonist activity at human TRPM8 expressed in HEK293F cells assessed as inhibition of menthol-induced TRPM8 channel activation by FLIPR-based Ca2+ assay relative to control; assay type: cell-based; conditions: concentration not given here
[6] = target: Transient receptor potential cation channel subfamily V member 4 (Homo sapiens, UniProt Q9HBA0); assay: Antagonist activity at human TRPV4 expressed in HEK293F cells assessed as inhibition of mOsmo-induced TRPV4 channel activation by FLIPR-based Ca2+ assay relative to control; assay type: cell-based; conditions: concentration not given here
[7] = target: T2, Transient receptor potential cation channel subfamily V member 3 (Homo sapiens) (UniProt Q8NET8); assay: Activation of endogenous TRPV3 in human epithelial cells upto 100 micromol/L; assay type: cell-based; conditions: Epithelial cell, dose <= 100.0 µmol/L
T2 sequence (whole entry): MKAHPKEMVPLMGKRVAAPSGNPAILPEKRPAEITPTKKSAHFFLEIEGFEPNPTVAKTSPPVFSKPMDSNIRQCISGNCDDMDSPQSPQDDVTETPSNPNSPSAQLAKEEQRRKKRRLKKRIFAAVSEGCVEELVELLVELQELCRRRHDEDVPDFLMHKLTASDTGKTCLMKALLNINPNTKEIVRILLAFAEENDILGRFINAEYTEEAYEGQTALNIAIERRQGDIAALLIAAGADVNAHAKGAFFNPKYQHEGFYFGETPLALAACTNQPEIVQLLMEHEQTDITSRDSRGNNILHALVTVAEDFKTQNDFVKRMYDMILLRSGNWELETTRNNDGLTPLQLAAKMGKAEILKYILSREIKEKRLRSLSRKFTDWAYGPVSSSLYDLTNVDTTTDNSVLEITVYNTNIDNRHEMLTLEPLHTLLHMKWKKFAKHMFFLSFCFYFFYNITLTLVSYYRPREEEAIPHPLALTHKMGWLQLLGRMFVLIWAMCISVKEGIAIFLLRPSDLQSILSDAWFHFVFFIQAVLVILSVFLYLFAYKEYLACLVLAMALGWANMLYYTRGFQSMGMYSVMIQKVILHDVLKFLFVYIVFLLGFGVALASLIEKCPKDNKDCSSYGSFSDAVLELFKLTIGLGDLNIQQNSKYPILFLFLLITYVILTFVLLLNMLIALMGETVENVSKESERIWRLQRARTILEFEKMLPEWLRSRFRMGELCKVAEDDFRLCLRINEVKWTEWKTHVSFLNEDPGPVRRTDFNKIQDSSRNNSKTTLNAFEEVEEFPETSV

[8] = target: Transient receptor potential cation channel subfamily A member 1 (Rattus norvegicus, UniProt Q6RI86); assay: Antagonist activity at rat TRPA1 expressed in HEK293F cells assessed as reduction in AITC-induced increase in intracellular Ca2+ level by FLIPR-based Ca2+ assay; assay type: cell-based
Sequence of Transient receptor potential cation channel subfamily A member 1 (Q6RI86 whole entry): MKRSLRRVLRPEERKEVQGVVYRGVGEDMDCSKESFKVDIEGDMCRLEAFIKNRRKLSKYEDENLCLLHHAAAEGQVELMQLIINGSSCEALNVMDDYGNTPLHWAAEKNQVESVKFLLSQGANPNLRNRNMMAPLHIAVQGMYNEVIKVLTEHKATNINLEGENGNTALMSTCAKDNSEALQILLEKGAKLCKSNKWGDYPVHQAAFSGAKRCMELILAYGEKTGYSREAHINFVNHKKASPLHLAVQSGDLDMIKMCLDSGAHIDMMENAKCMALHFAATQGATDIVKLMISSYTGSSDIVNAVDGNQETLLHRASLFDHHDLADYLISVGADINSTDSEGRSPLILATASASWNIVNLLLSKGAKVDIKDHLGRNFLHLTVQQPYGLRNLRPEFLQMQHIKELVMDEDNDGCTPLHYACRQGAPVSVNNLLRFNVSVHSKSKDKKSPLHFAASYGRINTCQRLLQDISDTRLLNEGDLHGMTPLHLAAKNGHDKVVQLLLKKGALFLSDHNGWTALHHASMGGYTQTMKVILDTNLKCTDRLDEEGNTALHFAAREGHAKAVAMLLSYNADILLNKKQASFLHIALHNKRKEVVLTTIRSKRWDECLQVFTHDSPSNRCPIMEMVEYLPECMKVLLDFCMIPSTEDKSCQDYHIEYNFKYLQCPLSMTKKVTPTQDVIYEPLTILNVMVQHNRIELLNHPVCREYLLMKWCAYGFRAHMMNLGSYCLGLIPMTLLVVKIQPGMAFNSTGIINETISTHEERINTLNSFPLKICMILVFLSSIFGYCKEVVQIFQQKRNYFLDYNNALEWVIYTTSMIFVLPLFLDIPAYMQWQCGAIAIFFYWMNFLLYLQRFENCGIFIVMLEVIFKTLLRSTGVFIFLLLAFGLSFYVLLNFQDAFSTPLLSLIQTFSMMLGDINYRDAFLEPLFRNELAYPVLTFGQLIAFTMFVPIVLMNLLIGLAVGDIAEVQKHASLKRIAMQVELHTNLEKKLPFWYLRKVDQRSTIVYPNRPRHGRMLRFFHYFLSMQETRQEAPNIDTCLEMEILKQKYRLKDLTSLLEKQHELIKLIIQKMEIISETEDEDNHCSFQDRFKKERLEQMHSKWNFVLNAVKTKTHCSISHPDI

T1 sequence (Q7Z2W7 whole entry, looked up): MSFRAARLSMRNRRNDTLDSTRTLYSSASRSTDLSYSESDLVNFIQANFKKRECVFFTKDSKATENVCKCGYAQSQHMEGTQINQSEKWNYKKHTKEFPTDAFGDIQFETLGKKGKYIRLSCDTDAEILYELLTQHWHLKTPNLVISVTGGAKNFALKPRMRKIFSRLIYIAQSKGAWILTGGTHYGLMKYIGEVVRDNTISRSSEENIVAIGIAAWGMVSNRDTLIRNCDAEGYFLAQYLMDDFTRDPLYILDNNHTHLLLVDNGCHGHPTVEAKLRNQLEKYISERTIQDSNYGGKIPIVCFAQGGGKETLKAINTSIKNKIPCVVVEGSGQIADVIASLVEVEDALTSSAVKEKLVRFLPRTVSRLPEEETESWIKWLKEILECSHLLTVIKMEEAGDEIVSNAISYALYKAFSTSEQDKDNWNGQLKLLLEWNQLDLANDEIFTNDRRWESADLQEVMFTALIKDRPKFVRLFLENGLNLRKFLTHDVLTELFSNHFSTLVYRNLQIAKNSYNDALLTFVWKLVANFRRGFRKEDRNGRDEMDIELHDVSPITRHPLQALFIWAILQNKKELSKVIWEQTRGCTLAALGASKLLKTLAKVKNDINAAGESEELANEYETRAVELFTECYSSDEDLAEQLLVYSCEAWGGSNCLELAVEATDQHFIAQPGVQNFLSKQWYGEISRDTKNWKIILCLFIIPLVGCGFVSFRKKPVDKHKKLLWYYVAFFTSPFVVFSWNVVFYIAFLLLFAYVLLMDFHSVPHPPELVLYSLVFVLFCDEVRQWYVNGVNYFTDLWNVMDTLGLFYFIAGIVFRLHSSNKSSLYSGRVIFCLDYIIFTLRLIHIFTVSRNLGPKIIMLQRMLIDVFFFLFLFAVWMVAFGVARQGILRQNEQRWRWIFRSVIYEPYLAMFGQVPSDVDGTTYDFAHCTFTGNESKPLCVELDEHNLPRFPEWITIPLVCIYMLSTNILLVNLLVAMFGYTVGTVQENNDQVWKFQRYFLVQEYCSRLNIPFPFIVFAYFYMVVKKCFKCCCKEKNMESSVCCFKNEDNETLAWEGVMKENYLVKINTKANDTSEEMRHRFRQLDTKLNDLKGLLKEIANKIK
Sequence of Transient receptor potential cation channel subfamily A member 1 (Rattus norvegicus) (Q6RI86 whole entry): as the sequence (Q6RI86 whole entry) above
Sequence of Transient receptor potential cation channel subfamily V member 4 (Q9HBA0 whole entry): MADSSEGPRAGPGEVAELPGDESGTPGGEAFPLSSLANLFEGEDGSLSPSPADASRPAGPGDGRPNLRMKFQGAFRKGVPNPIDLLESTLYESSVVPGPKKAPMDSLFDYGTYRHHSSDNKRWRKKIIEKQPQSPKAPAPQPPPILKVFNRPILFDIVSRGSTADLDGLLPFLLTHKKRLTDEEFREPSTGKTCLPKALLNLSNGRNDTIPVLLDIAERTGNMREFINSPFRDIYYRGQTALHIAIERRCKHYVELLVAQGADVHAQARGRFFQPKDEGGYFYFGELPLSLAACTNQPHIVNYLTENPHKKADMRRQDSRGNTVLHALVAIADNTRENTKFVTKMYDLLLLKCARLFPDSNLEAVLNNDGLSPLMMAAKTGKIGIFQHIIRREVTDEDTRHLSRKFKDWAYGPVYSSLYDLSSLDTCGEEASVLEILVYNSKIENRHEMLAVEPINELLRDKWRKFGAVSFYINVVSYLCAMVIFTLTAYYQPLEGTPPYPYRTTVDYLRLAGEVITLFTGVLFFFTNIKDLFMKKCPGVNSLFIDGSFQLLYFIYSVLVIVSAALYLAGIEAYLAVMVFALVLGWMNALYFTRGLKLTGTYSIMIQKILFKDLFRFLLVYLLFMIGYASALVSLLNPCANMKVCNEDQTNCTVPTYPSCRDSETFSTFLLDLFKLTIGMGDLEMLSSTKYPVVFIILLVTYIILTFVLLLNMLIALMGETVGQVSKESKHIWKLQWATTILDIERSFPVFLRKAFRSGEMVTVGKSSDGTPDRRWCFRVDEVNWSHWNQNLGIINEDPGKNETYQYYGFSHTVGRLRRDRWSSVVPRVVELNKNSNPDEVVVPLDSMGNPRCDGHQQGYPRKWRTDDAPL

CCC(=N\O)/C(C)=C/c1ccc(F)cc1 [A-079]
Activity [1]: inactive | Activity [2]: Non-Toxic | concentration at 1 h [3]: 1540 nM | Activity [4]: Active | inhibition [5]: < 20% | inhibition [6]: < 20% | Activity [7]: inactive | IC50 [8]: 289 nM
